One series has as its system normal epidermis. Particulars: applied to normal epidermis; cited from earlier work.
The subject of another series is murine skin. Put plainly: Epidermal mRNA levels of antioxidant enzymes after topical hesperidin. It counts as in vivo. The note with it: topical hesperidin applications.
The next series relates to aged mice. The series can be described thus: Cholesterol-dominant lipid mixture plus hesperidin on aged mice. It counts as in vivo, mouse. Particulars: 2% hesperidin added to the triple lipid mixture, 18-month old mice, twice daily for 7 days. As to the method: The composition includes a cholesterol-dominant lipid mixture plus hesperidin for the use on aged mice: 18-Month old mice were divided into groups of untreated, lipid mixture+vehicle (70% ethanol) treated, and lipid mixture+2% hesperidin treated. Mice are treated twice daily for 7 days. All measurements are carried out with a MPA5 physiology monitor. Lipid mixture contained cholesterol, fatty acid and ceramide (3:1:1 molar ratio, with cholesterol at 3 moles) at a concentration of 0.74 wt %. Data are normalized to untreated control, setting untreated as 100%.

The test system of series [1] is GC-induced epidermal side effects. Put plainly: Hesperidin co-applications with glucocorticoid (GC): prevention of GC-induced epidermal side effects. It counts as in vivo.
Series [2] is described as follows: Solubility of hesperidin in ethanol. Type of series: physicochemical. The note with it: 100% ethanol.
Another series relates to aged mouse epidermis. The series can be described thus: Q-PCR for mRNA expression in aged mouse epidermis. Type of series: in vivo.
The subject of series [3] is aged epidermis. The series can be described thus: Lamellar body density and secretion (electron microscopy). It counts as in vivo, mouse. An excerpt:
Skin biopsies from both vehicle and hesperidin-treated mice were taken for electron microscopy. Briefly, samples were minced to <0.5 mm^3, fixed in modified Karnovsky's fixative overnight, and post-fixed in either 0.2% ruthenium tetroxide or 1% aqueous osmium tetroxide, containing 1.5% potassium ferrocyanide. After fixation, all samples were dehydrated in a graded ethanol series, and embedded in an Epon-epoxy mixture. Ultrathin sections were examined, with or without further contrasting with lead citrate, in a Zeiss 10A electron microscope (Carl Zeiss, Thornwood, N.J.), operated at 60 kV.
LB numbers were determined in granular cells two to three layers below the stratum granulosum-stratum corneum (SG-SC) junction as previously described. The number of LBs was counted at 4800 magnification using a calibrated grid. Total 10 random pictures from each biopsy sample were assessed. For quantification of LB secretion, number of LB protrusion at the SG-SC junction were measured at a magnification of 5800 and correlated with the length of the bottom surface of the first SC layer on 10 random images at 5800 magnification.

Series [4] has as its system keratinocytes isolated from adult human (donor aged 60-65 year old). The series can be described thus: Q-PCR for mRNA expression in adult human keratinocyte cultures. It counts as cell-based. Particulars: 0.02% hesperidin. As to the method:
Second-passage keratinocytes isolated from adult human (donor aged 60-65 year old) were cultured in serum-free keratinocyte growth medium containing 0.07 mM calcium (Clonetics, San Diego, Calif.). Cells at 60%-70% confluence were switched to a medium containing 1.2 mM calcium and treated with either 0.02% hesperidin or vehicle alone (0.02% ethanol). After 24 and 48 hrs of treatment, keratinocytes were collected for Q-PCR analysis.
Total RNA was isolated from cultured human keratinocytes using TRI Reagent (Sigma). First strand cDNA was synthesized from 1 ug of total RNA with the iScript cDNA Synthesis Kit (Bio-Rad, Hercules, Calif.). The real-time PCR contained 20 ng of reversed transcribed total RNA, 450 nM forward and reverse primers, and 10 μl of 2× LightCycler 480 SYBR Green I Master in a final volume of 20 μl in 96-well plates using Mx3000PTM Real-time PCR System (Stratagene, La Jolla, Calif.). Quantification was performed by the comparative CT method with 36B4 or Cyclophilin A used for normalization. The primers for lipid synthetic enzymes such as 3-hydroxy-3-methyl-glutaryl-CoA reductase (HMGCoA), serine-palmitoyl transferase 1 (SPT1), fatty acid synthase (FAS), lipid transporters (ATP-binding cassette A12 (ABCA12)), mouse beta defensin 3 (mBD3), sodium-hydrogen exchanger 1 (NHE1), secretary phospholipase A2g2f (sPLA2g2f), filaggrin, involucrin, loricrin and Cyclophilin A are listed in Primer Table 2. Relative expression of the mRNAs compared to control mRNA was calculated. Data are expressed as percentage of control (as 100%).

Series [5] has as its system aged epidermis. The series can be described thus: Gross appearance, histology and PCNA staining of aged mouse epidermis. Type of series: in vivo. Particulars: aged mice, 2% hesperidin topically twice daily for 9 days; NS vs. vehicle. How it is done:
(§1) All animal procedures were approved by the Animal Studies Subcommittee (IACUC) of the San Francisco Veterans Administration Medical Center and performed in accordance with their guidelines. Since hesperidin is not soluble in 100% ethanol, 70% ethanol was used as vehicle. Since the turnover time for […] is about 9.5 days in normal young mice, we chose to treat aged mice for 9 days. Both flanks of 12-15 month old mice were treated topically with 60 μl of 2% hesperidin or 70% ethanol twice daily for 9 days. Basal epidermal permeability barrier function was assessed by measuring transepidermal water loss (TEWL) using TM300 connected to MPA5 (C&K, Cologne, Germany). For barrier recovery, TEWL was measured using an electrolytic water analyzer (Meeco, Warrington, Pa.) at 0, 2 and 4 hours after tape stripping (10-fold increase in TEWL), and percent barrier recovery was calculated.
Immunohistochemical staining for assessing changes in epidermal differentiation was performed as follows. Briefly, 5 μm paraffin sections were incubated with the primary antibodies (Covance, Emeryville, Calif.) overnight at 4° C. […] Staining was detected with ABC-peroxidase kit from Vector Lab (Burlingame, Calif.). Sections were examined with a Zeiss fluorescence microscope (Jena, Germany) and digital images were captured with AxioVision software (Carl Zeiss Vision, Munich, Germany).

Another series deals with young normal murine skin. Put plainly: Topical hesperidin on young normal murine skin. Type of series: in vivo.
A further series deals with aged murine skin. Put plainly: Epidermal function after topical hesperidin in aged mice (TEWL, barrier recovery, SC hydration, skin surface pH). Type of series: in vivo, mouse. As to the method: as §1
The conditions of series [6]: cited from earlier work.
Where [7] appears, read: hesperidin co-applications with GC.
[8] abbreviates: aged epidermis, topical hesperidin, Q-PCR.
Setting [9] is: aged mouse epidermis, topical hesperidin.
Where [10] appears, read: aged mouse epidermis, topical hesperidin, Q-PCR.
The mark [11] stands for this setting: aged human keratinocyte cultures.

These results are taken from patent publication US20170020798A1, “HESPERIDIN-CONTAINING COMPOSITIONS AND METHODS FOR TREATMENT OF SKIN DISORDERS” (The Regents of the University of California, priority 2015, published 2017).

The structures appear in SMILES notation. Structures can show the parent of a compound that is named as a salt.

For the compound `CC[C@H](C)C(=O)O[C@H]1C[C@@H](C)C=C2C=C[C@H](C)[C@H](CC[C@@H]3C[C@@H](O)CC(=O)O3)[C@H]21` [lovastatin], the “effect on barrier function” value with normal epidermis is “produces a barrier defect”.
Regarding `COc1ccc([C@@H]2CC(=O)c3c(O)cc(O[C@@H]4O[C@H](CO[C@@H]5O[C@@H](C)[C@H](O)[C@@H](O)[C@H]5O)[C@@H](O)[C@H](O)[C@H]4O)cc3O2)cc1O` [hesperidin, (2S)-5-hydroxy-2-(3-hydroxy-4-methoxyphenyl)-7-[(2S,3R,4S,5S,6R)-3,4,5-trihydroxy-6-[[(2R,3R,4R,5R,6S)-3,4,5-trihydroxy-6-methyloxan-2-yl]oxymethyl]oxan-2-yl]oxy-2,3-dihydrochromen-4-one], in the series with murine skin, the “epidermal glutathione reductase mRNA levels” value is reported as “increased” and the “epidermal superoxide dismutase mRNA levels” value is reported as “increased”. Moreover, the pH result with aged mice was “significantly improved (lowered)”. In series [1] (co-applications of hesperidin with GC), the “GC-induced inhibition of epidermal proliferation” value was “prevented”. In addition, in series [1] (setting [7]), the “GC-induced impairment of epidermal permeability barrier homeostasis” value is listed as “prevented”, the “GC-induced impairment of stratum corneum (SC) integrity” value is given as “prevented”, the “epidermal β-glucocerebrosidase activity” value is listed as “enhanced” and the filaggrin expression entry is recorded as “significant increase”. Moreover, in series [1] (setting [7]), the lamellar bilayer maturation result is on record as “accelerated”. The “GC-induced impairment of SC acidification / changes in skin surface pH” value in series [1] (hesperidin co-applications with topical GC) is given as “prevented”. For the same compound, in series [2], the solubility entry is recorded as “not soluble”. Also, the Nrf2 expression result in the series on aged mouse epidermis (aged epidermis) is “upregulates”. Besides, in the series with aged mouse epidermis (setting [8]), the “NHE1 mRNA levels” value is recorded as “marked elevation” and the “sPLA2g2f mRNA levels” value was “marked elevation”. In addition, the “epidermal mBD3 mRNA levels” value in the series with aged mouse epidermis (aged mice, hesperidin treatment) is “significantly increased”. Also, in the series on aged mouse epidermis (setting [9]), the “ABCA12 mRNA expression” value is recorded as “marked increase”, the “filaggrin mRNA levels” value was “significantly increased” and the “loricrin mRNA levels” value is “significantly increased”. Moreover, in the series on aged mouse epidermis (setting [10]), the “FAS mRNA levels” value is “significantly increased”, the “HMGCoA mRNA levels” value was “significantly increased” and the “SPT1 mRNA levels” value was “significantly increased”. Besides, the “density of lamellar bodies” value in the series with aged epidermis [3] (aged epidermis after hesperidin treatment) is recorded as “did not increase”. Moreover, the “extent of lamellar body secretion” value with aged epidermis [3] (aged epidermis, topical hesperidin treatment, quantitative analyses) is “enhanced”. Moreover, in [4] (adult keratinocyte cultures), the “ABCA12 mRNA expression” value is listed as “marked increase”, the “filaggrin mRNA levels” value is recorded as “increased”, the “involucrin mRNA levels” value is given as “increased” and the “loricrin mRNA levels” value is recorded as “increased”. In series [4] (setting [11]), the CAMP/LL37 expression entry was “markedly upregulated”, the “constitutive hBD2 mRNA expression” value is recorded as “no changes” and the “hBD3 mRNA” value is reported as “markedly upregulated”. In addition, in the series with aged epidermis [5], the “PCNA-positive cells per cm epidermal length” value was 2.45±0.13 cells per cm epidermal length. Further, in the series on young normal murine skin, the epidermal differentiation result is given as “stimulation”, the epidermal proliferation result is on record as “stimulation”, the “lamellar body (lipid) secretion” value is “enhanced” and the “skin barrier recovery after acute barrier abrogation” value was “significantly accelerated”. For the same compound, in the series on aged murine skin (aged mice, 9 days topical hesperidin, compared with vehicle-treated skin), the “skin surface pH” value was “significantly declined”. Besides, the “basal transepidermal water loss rates” value with aged murine skin (aged mice, 9 days topical hesperidin, compared with vehicle-treated skin, within normal range of young skin) was “increased slightly”. Further, the “baseline SC hydration” value with aged murine skin (aged mice, after 9 days of topical hesperidin, no different from vehicle) is 58.80±2.27. For the same compound, the barrier recovery result in the series with aged murine skin (at both 2 and 4 hours after acute barrier disruption of aged skin) was “significantly accelerated”.
The term pKa denotes the pH at which an ionisable group is half protonated. For `CC(C)CCC[C@@H](C)[C@H]1CC[C@H]2[C@@H]3CC=C4C[C@@H](OS(=O)(=O)O)CC[C@]4(C)[C@H]3CC[C@]12C` [CSO4, Cholesterol sulfate], the pKa in [6] was 3.1.
